Data on six molecules can be found in PMC5823691 (Journal of medicinal chemistry, 2017).

In general, solubility refers to the dissolved amount per volume that the medium holds.

For data set [1], the system named is Mac-1 (αMβ2)–CD40L interaction. Put plainly: cell-free Mac-1–CD40L binding inhibition assay. More on the design: species or system human. The following applies: compared with CD40–CD40L activity; Figure S1.
The test system of data set [2] is Salmonella typhimurium TA-100. Briefly: Muta-Chromplate mutagenicity assay. The following applies: S. typhimurium TA-100; concentrations tested of up to 500 µM; Figure S4.
For data set [3], the system named is THP-1 human myeloid cells. The conditions noted are these: THP-1 cells, 0.5 µg/mL MegaCD40L, 48 h; Figure S2.
The subject of data set [4] is THP-1 human myeloid cells. Briefly: MTT cytotoxicity assay. The following applies: THP-1 cells, 48 h; concentrations of up to 100 and 200 µM; Figure S3. Type of data set: cell-based.
For data set [5], the target named is human CD40–CD40L interaction (Homo sapiens, UniProt P29965).
human CD40–CD40L interaction, sequence (P29965 113-261 limits assumed): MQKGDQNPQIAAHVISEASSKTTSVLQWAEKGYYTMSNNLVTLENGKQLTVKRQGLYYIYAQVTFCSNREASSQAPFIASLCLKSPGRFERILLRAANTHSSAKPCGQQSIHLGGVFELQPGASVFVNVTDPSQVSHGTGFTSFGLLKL
A short description of another data set: water solubility. The data set is classed as physicochemical. The conditions noted are these: distilled water, Estimated water solubility, saturated solution.
Data set [6] relates to Balb/c skin allografts in C57BL/6 mice. The conditions noted are these: two week treatment, 30 mg/kg daily s.c. in 20% HPβCD.

Values after ≈ are worked out from the molar mass of the structure shown.

For `Nc1ccc(C(=O)Nc2ccc(-c3ccc(C(=O)Nc4cccc5cccc(S(=O)(=O)O)c45)cc3)cc2)cc1` [Compound 8, 8-(4’-(4-Aminobenzamido)biphenyl-4-ylcarboxamido)naphthalene-1-sulfonic acid], in data set [1], the “increase of inhibitory potency in Mac-1–CD40L assay” value is “about 10 fold”.
Take `O=C(Nc1ccc(-c2ccc(C(=O)Nc3cccc4cccc(S(=O)(=O)O)c34)cc2)cc1)c1ccc([N+](=O)[O-])cc1` [Compound 6, 8-(4’-(4-Nitrobenzamido)biphenyl-4-ylcarboxamido)naphthalene-1-sulfonic acid]: the “genotoxic potential (Ames test)” value in data set [2] was “neither of these compounds was found to have genotoxic potential”. In data set [3], the “effect on CD40L-induced MHC-II upregulation” value (“effect” below) is on record as “concentration-dependently inhibited”.
Consider `O=C(Nc1ccc(-c2ccc(C(=O)Nc3ccc(C(=O)O)c4ccccc34)cc2)cc1)c1ccc([N+](=O)[O-])cc1` [Compound 11, 4-(4’-(4-Nitrobenzamido)biphenyl-4-ylcarboxamido)-1-naphthoic acid], for which the “cytotoxicity (MTT, viability)” value in data set [4] was “significant effect on viability at 100 µM”. Also, the “effect” value in data set [3] was “concentration-dependently inhibited”.
In the case of `O=C(Nc1ccc2c(O)c(/N=N/c3ccc(N=Nc4ccc(S(=O)(=O)O)cc4)cc3S(=O)(=O)O)c(S(=O)(=O)O)cc2c1)Nc1ccc2c(O)c(/N=N/c3ccc(N=Nc4ccc(S(=O)(=O)O)cc4)cc3S(=O)(=O)O)c(S(=O)(=O)O)cc2c1` (stereo in doubt) [Compound 1, direct red 80, reference compound], in data set [1], the “increase of inhibitory potency in Mac-1–CD40L assay” value is on record as “about 10 fold”. For the same molecule, the “ligand efficiency (LE)” value in data set [5] (binding free energy per non-hydrogen atom) amounted to 0.4 kJ/atom.
With `COC(=O)c1ccc(C(=O)Nc2ccc(-c3ccc(C(=O)Nc4cccc5cccc(S(=O)(=O)O)c45)cc3)cc2)cc1` [Compound 10, 8-(4’-(4-(Methoxycarbonyl)benzamido)biphenyl-4-ylcarboxamido)naphthalene-1-sulfonic acid], the “genotoxic potential (Ames test)” value in data set [2] is “neither of these compounds was found to have genotoxic potential”. Further, in “water solubility”, the solubility is 164 µg/mL (≈ 282 µM). Also, the “effect” value in data set [3] is listed as “concentration-dependently inhibited”. The “toxicity during chronic treatment” value in data set [6] is “no signs of toxicity”.
Turning to `CSCC[C@H](NC(=O)[C@@H](NC(=O)[C@H](Cc1ccc(O)cc1)NC(=O)[C@H](Cc1ccc(O)cc1)NC(=O)CNC(=O)[C@H](CCCCN)NC(=O)[C@H](CCCCN)NC(=O)[C@H](C)NC(=O)[C@H](Cc1c[nH]c2ccccc12)NC(=O)[C@H](CCC(N)=O)NC(=O)[C@H](CC(C)C)NC(=O)[C@@H](N)C(C)C)[C@@H](C)O)C(=O)N[C@@H](CCCCN)C(=O)N[C@@H](CO)C(=O)N[C@@H](CC(N)=O)C(=O)O` [mouse KGYY15], in data set [5] (cell-free, soluble CD40L binding to plate-coated CD40, Hill slope 1 fit), the “CD40 IC50” value is reported as “no inhibitory activity”.
